These results are taken from patent US10857155B2, “Compounds targeting proteins, compositions, methods, and uses thereof” (BioTheryX, Inc., priority 2017, dated 2020).

Format in all cases: cell-based
One experiment relates to TNF-α. Briefly: TNF-alpha in LPS-induced PBMCs / CD14+ monocytes, Meso Scale assay. The conditions noted are these: 0.1 μM. The procedure, abridged: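 Frozen human PBMCs or CD14+ mobilized peripheral blood monocytes pretreated with compound 1 h, then stimulated with 100 ng/mL LPS for 18-24 h. Supernatant TNF-alpha measured by Meso Scale immunoassay; activity expressed relative to LPS-induced DMSO control.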

The target in a further experiment is T1, GSPT1 (Homo sapiens, UniProt P15170).
T1 construct: Whole cell extract was prepared with RIPA buffer according to manufacturer's protocol; endogenous in cells; host or cells: Jurkat cells
T1 sequence (P15170 whole entry): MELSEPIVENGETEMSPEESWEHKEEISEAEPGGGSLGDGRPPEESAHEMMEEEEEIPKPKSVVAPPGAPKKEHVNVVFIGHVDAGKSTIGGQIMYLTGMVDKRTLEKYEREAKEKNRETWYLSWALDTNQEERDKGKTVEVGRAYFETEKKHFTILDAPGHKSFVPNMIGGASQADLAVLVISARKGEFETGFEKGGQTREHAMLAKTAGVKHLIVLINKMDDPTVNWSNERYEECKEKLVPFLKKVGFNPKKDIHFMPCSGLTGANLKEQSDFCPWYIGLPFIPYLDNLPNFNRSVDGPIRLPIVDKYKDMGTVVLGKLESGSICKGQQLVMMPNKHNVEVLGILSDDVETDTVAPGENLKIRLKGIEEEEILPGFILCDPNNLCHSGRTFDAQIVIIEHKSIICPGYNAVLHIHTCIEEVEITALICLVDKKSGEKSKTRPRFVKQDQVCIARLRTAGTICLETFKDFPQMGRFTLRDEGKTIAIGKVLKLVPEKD
Description: Western blot analysis of GSPT1 protein levels in Jurkat cells. Conditions: DMSO = 100.00; for GSPT1 protein level (% of DMSO control) at 0.1 µM: 100 nM compound; for GSPT1 protein level (% of DMSO control) at 1 µM: 1 uM compound. The procedure, abridged:
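Jurkat cells (~10^6 cells/mL, RPMI 1640 + 10% FBS) treated with compound or DMSO for 4 h or 6–8 h; RIPA whole-cell lysates run on 4–12% SDS-PAGE and immunoblotted with HRP or IRDye secondaries (Odyssey imaging). Activity read as decrease in GSPT1 protein versus DMSO.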

The next experiment has as its system IL-2. Description: IL-2 in PBMCs on anti-human CD3 (OKT3) coated plates, Mesoscale analysis. The conditions noted are these: PBMC, 24 h, 0.1 μM, relative to DMSO control, read-out: Fold Change IL-2. The procedure, abridged:
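PBMCs (3-4 million cells/mL) with compounds were stimulated on plates precoated with 1 μg/mL anti-human CD3 (OKT3) for 24 h. Supernatant IL-2 was measured by Mesoscale, activity expressed as fold difference from DMSO control.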

The test system of a further experiment is IL-6. Description: IL-6 in LPS-induced PBMCs / CD14+ monocytes, Meso Scale assay. The conditions noted are these: 0.1 μM. In short, it runs like this:
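Frozen PBMCs or CD14+ monocytes were plated at 200,000 cells/well and pretreated 1 h with compound or DMSO. They were then stimulated with 100 ng/mL LPS for 18–24 h, and supernatant IL-6 was measured by Meso Scale assay. Activity is expressed relative to the LPS-induced DMSO control.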

The subject of another experiment is Molm-13 cells. Description: Cell viability assay (CellTiter-Glo), Molm-13 cells. The conditions noted are these: Homo sapiens, 72 h, 3 days. The procedure, abridged: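 Molm-13 cells in RPMI-1640/10% FBS, 20,000 per well, exposed to compound or DMSO for 3 days at 37° C, 5% CO2. Viable cells quantified by CellTiter-Glo luminescence after 10 min shaking.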
A general note: Cellular ATP, detected with luciferase, serves as a proxy for viable cell number.

Another experiment has as its system H1048 cells. Description: Cell viability assay (CellTiter-Glo), H1048 cells. The conditions noted are these: Homo sapiens, NCI-H1048, 72 h, 3 days; for viability at 1 µM: H1048, 1 μM; for viability at 10 µM: H1048, 10 μM. The procedure, abridged: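 H1048 cells in supplemented DMEM:F12 with 5% FBS, 20,000 cells/well, exposed to compound or DMSO for 3 days at 37 °C, 5% CO2. Viability read by CellTiter-Glo luminescence after 10 min shaking.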

The next experiment deals with IL-1β. Description: IL-1 beta in LPS-induced PBMCs / CD14+ monocytes, Meso Scale assay. Conditions: 0.1 μM. The procedure, abridged: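 Thawed PBMCs or CD14+ mobilized peripheral blood monocytes were plated at 200,000 cells per well, pretreated with compound or DMSO for 1 h, then stimulated with 100 ng/mL LPS for 18-24 h. Supernatant IL-1 beta was measured by Meso Scale assay, with activity expressed relative to the DMSO control.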

`Cc1ccc(NC(=O)NCc2ccc3c(c2C)CN([C@H]2CCCC(=O)NC2=O)C3=O)cc1Cl` [Compound 16, (S)-1-(3-chloro-4-methylphenyl)-3-((2-(2,7-dioxoazepan-3-yl)-4-methyl-1-oxoisoindolin-5-yl)methyl)urea] gave an inhibition at 0.1 µM in the experiment with TNF-α of 78%. In addition, at GSPT1, the GSPT1 protein level (% of DMSO control) at 0.1 µM amounted to 59.4% and the GSPT1 protein level (% of DMSO control) at 1 µM amounted to 39.3%. In addition, the fold induction at 0.1 µM with IL-2 amounted to 1.7. Besides, testing at 0.1 µM with IL-6 gave an inhibition of 72%. Besides, in the experiment with Molm-13 cells (MOLM-13, 0.5 μM), the viability at 0.5 µM stood at 70%. In the experiment on H1048 cells, this compound yielded a viability at 1 µM of 7.66% and a viability at 10 µM of 3.93%. This compound also came in with an inhibition at 0.1 µM in the experiment on IL-1β of 72%.

`O=C(Cc1ccc(Cl)c(CN2CCOCC2)c1)NCc1ccc2c(c1)CN([C@H]1CCCC(=O)NC1=O)C2=O` [Compound 15, (S)-2-(4-chloro-3-(morpholinomethyl)phenyl)-N-((2-(2,7-dioxoazepan-3-yl)-1-oxoisoindolin-5-yl)methyl)acetamide]: the inhibition at 0.1 µM in the experiment on TNF-α, in the experiment with IL-6 and with IL-1β was 0% each time. This compound registered a GSPT1 protein level (% of DMSO control) at 0.1 µM on GSPT1 of 167%. The GSPT1 protein level (% of DMSO control) at 1 µM at GSPT1 turned out to be 111%. For the same compound, the fold induction at 0.1 µM in the experiment on IL-2 was determined as 1. In addition, the viability at 10 µM with Molm-13 cells (MOLM-13, 10 μM) is 84%; with H1048 cells it was 35%. This compound showed a viability at 1 µM in the experiment with H1048 cells of 93.3%.

What is called inhibition is the change of the read-out against control, counted positive when it falls. The low end stands for a weak effect, the high end for a strong effect. As usually defined, the viability is the share of living cells, or the viability signal relative to a control. A high value points to better survival.
